ChEMBL document CHEMBL3272205, “Pyrazolodiazepines. 2. 4-Aryl-1,3-dialkyl-6,8-dihydropyrazolo[3,4-e] [1,4]diazepin-7(1H)-ones as antianxiety and anticonvulsant agents” (1977)

Assays:
Type in all cases: functional
Rattus norvegicus [1] = species: Rattus norvegicus; experiment: Antianxiety activity in Holtzman rat assessed as dose required to elicit increase in milk consumption; conditions: read-out: MED
Rattus norvegicus [2] = species: Rattus norvegicus; experiment: Anticonvulsant activity in rat assessed as protection against pentylenetetrazole-induced clonic seizures; conditions: read-out: MED
Rattus norvegicus [3] = species: Rattus norvegicus; experiment: Ratio of diazepam MED to compound MED for antianxiety activity in Holtzman rat

SMILES	minimal effective dose (Rattus norvegicus [1]) [mg/kg]	minimal effective dose (Rattus norvegicus [2]) [mg/kg]	Ratio (Rattus norvegicus [3])
Cn1nc(Cl)c2c1NC(=O)CN=C2c1ccccc1	40	63	
CCCc1nn(C)c2c1C(c1ccccc1Cl)=NCC(=O)N2C	> 40	63	
Cc1nn(C)c2c1C(c1ccccc1)=NCC(=O)N2C	2.5	4	
Cc1nn(-c2ccccc2)c2c1C(c1ccccc1Cl)=NCC(=O)N2	20	500	
Cc1nn(C)c2c1C(c1ccccc1)=NCC(=O)N2	10	16	
CN1C(=O)CN=C(c2ccccc2)c2cc(Cl)ccc21 [DIAZEPAM]	1.25	4	
Cl.Cn1ncc2c1NC(=O)CN=C2c1ccccc1	> 80	250	
CCc1nn(C)c2c1C(c1ccc(F)cc1)=NCC(=O)N2	> 40	> 500	
Cc1nn(C)c2c1C(c1ccccc1F)=NCC(=O)N2	2.5	8	
CCCCn1nc(C)c2c1N(C)C(=O)CN=C2c1ccccc1Cl	40	16	
Cc1nn(C)c2c1C(c1ccccc1)=NC(O)C(=O)N2C (stereo not given)	5	16	
CCCCc1nn(C)c2c1C(c1ccccc1Cl)=NCC(=O)N2C	> 40	125	
Cc1nn(C)c2c1C(c1ccccc1)=NCC(=O)N2C.Cl	2.5	4	
CC(C)c1nn(C)c2c1C(c1ccccc1Cl)=NCC(=O)N2	> 40	125	
CCc1nn(C)c2c1C(c1ccccc1)=NCC(=O)N2C	1.25	4	
CCCn1nc(C)c2c1N(C)C(=O)CN=C2c1ccccc1Cl	2.5	16	
Cc1nn(C(C)C)c2c1C(c1ccccc1Cl)=NCC(=O)N2	20	16	
COc1nn(C)c2c1C(c1ccccc1F)=NCC(=O)N2C	10	8	
CCCc1nn(C)c2c1C(c1ccccc1Cl)=NCC(=O)N2	> 40	250	
CCn1nc(C)c2c1NC(=O)CN=C2c1ccccc1Cl	5	8	

SMILES	minimal effective dose (Rattus norvegicus [1]) [mg/kg]	minimal effective dose (Rattus norvegicus [2]) [mg/kg]	Ratio (Rattus norvegicus [3])
Cc1nn(C)c2c1C(c1ccccc1F)NCC(=O)N2C.Cl (stereo not given)	1.2	4	
CCc1nn(C)c2c1C(c1ccccc1F)=NCC(=O)N2	1.25	2	
Cc1nn(C)c2c1C(c1ccccc1F)=NCC(=O)N2C [ZOLAZEPAM]	0.32	2	5
CC(=O)OC1N=C(c2ccccc2F)c2c(C)nn(C)c2N(C)C1=O (stereo not given)	20	8	
Cc1nn(C)c2c1C(c1ccccc1F)=NC(O)C(=O)N2C (stereo not given)	2.5	4	
CCc1nn(C)c2c1C(c1cccc(F)c1)=NCC(=O)N2	20	32	
Cc1nn(C)c2c1C(c1ccccc1Br)=NCC(=O)N2C	5	4	
Cc1nn(C)c2c1C(c1ccccc1F)=NCC(=O)N2C.Cl [ZOLAZEPAM HYDROCHLORIDE]	0.32	2	
Cc1nn(C)c2c1C(c1ccccc1N=[N+]=[N-])=NCC(=O)N2C	> 40	63	
Cc1nn(C)c2c1C(c1cccs1)=NCC(=O)N2	40		
CCc1nn(C)c2c1C(c1ccccc1F)=NCC(=O)N2C	1.25	4	
Cc1nn(C2CCCCC2)c2c1C(c1ccccc1Cl)=NCC(=O)N2C	> 40	63	
CCN1C(=O)CN=C(c2ccccc2F)c2c(C)nn(C)c21	5	32	
CCCCn1nc(C)c2c1NC(=O)CN=C2c1ccccc1Cl	40	32	
CCc1nn(C)c2c1C(c1ccccc1)NCC(=O)N2C.Cl (stereo not given)	> 40	63	
Cc1nn(C)c2c1C(c1cccc(Cl)c1)=NCC(=O)N2	> 40	> 500	
CCCn1nc(C)c2c1NC(=O)CN=C2c1ccccc1Cl	40	63	
Cc1nn(C)c2c1C(c1c(F)cccc1F)=NCC(=O)N2C	20	2	
CCc1nn(C)c2c1C(c1ccccc1Cl)=NCC(=O)N2C	0.63	16	
CCn1nc(C)c2c1NC(=O)CN=C2c1ccccc1F	2.5	8	

SMILES	minimal effective dose (Rattus norvegicus [1]) [mg/kg]	minimal effective dose (Rattus norvegicus [2]) [mg/kg]	Ratio (Rattus norvegicus [3])
Cc1nn(C)c2c1C(c1ccccc1Cl)=NCC(=O)N2	2.5	16	
Cc1nn(C2CCCCC2)c2c1C(c1ccccc1Cl)=NCC(=O)N2	> 40	> 500	
CC(C)c1nn(C)c2c1C(c1ccccc1Cl)=NCC(=O)N2C	> 40	63	
CCn1nc(C)c2c1N(C)C(=O)CN=C2c1ccccc1F	1.25	4	
CCCCc1nn(C)c2c1C(c1ccccc1Cl)=NCC(=O)N2	> 40	> 500	
CCc1nn(C)c2c1C(c1cccc(F)c1)=NCC(=O)N2C	10	32	
Cc1nn(-c2ccccc2)c2c1C(c1ccccc1)=NCC(=O)N2	> 40	> 500	
CCc1nn(C)c2c1C(c1ccc(F)cc1)=NCC(=O)N2C	> 40	> 500	
Cc1nn(C)c2c1C(c1ccccc1)=[N+]([O-])CC(=O)N2C	> 40	63	
CCCCn1nc(C)c2c1NC(=O)CN=C2c1cccc(Cl)c1	> 40	> 500	
Cc1nn(C)c2c1C(c1ccccc1[N+](=O)[O-])=NCC(=O)N2C		8	
CCc1nn(C)c2c1C(c1ccccc1Cl)=NCC(=O)N2	2.5	32	
Cc1nn(C)c2c1C(c1ccccc1F)=[N+]([O-])CC(=O)N2C	10	8	
CCc1nn(C)c2c1C(c1ccccc1)=NCC(=O)N2	2.5	8	
CCn1nc(C)c2c1N(C)C(=O)CN=C2c1ccccc1Cl	0.63	4	
C=CCN1C(=O)CN=C(c2ccccc2Cl)c2c(C)nn(CC)c21	> 40	63	
Cc1nn(C)c2c1C(c1ccccc1Cl)=NCC(=O)N2C.Cl	2.5	4	
CCc1nn(C)c2c1C(c1ccccc1F)=NCC(=O)N2.Cl	1.25	2	
